Assay results published in US8975397B2, “Solid forms” (Hoffmann-La Roche Inc., priority 2011, dated 2015).
Values after ≈ are worked out from the molar mass of the structure shown. “Also recorded” adds a separate entry of the source. Read-outs that look alike come from different tables or passages of the source.

Key:
[1] = Solid form stability towards humidity and water (storage, Humidity Controlled XRPD); settings: for phase change upon storage at 100% rH: ambient temperature (Form C: e.g. 30 days); for relative humidity at which Form B dehydrates into Form E: storage / Humidity Controlled XRPD, monohydrate
Experimental: Humidity Controlled XRPD analyses were performed in reflection geometry with a Siemens D5000 Diffractometer (Cu radiation source, NiK beta filter, Scintillation detector, angular range 3° to 42° 2Theta, approximately 180 minutes total measurement time per humidity level). The diffractometer is equipped with an MR1 (Materials Research Instruments) humidity chamber. The humidity within the chamber is adjusted with an ANSYCO humidity controller (SYCOS H-HOT).
50 mg of Form B was subjected to dehydration/hydration cycles.

[2] = Temperature Controlled XRPD / heating: solid form change; type: physicochemical; settings: for solid form changes at elevated temperature: Temperature Controlled XRPD
Experimental: Temperature Controlled XRPD analyses of Form B show a phase transition to Form A at elevated temperature. In the temperature range 105-135° C. only Form A is present. In the temperature range of 65-95° C. an intermediate state is observed that is characterized by significant changes in peak positions.

[3] = In vitro dissolution in miniaturized system (SGF, FeSSIF); type: physicochemical; settings: comparison with Form B
Experimental: FIG. 21 illustrates the mean in vitro dissolution profiles in SGF. Mean in vitro dissolution profiles of micronized powders of Form A (∘), Form B (▾), Form C (▪) and γ-CD inclusion complex (Δ) in SGF at room temperature. Measurements were performed in triplicate (n=3).
FIG. 22 illustrates the mean in vitro dissolution profiles in FeSSIF. Mean in vitro dissolution profiles of micronized powders of Form A (∘), Form B (▾), Form C (▪) and γ-CD inclusion complex (Δ) in FeSSIF at room temperature. Measurements were performed in triplicate (n=3).
The in vitro dissolution studies performed in this work were conducted in a miniaturized system with 100 mL dissolution medium per experiment. In comparison to the 1000 mL vessels of the conventional USP apparatus the experimental set-up that was used here was scaled-down and simplified (magnetic stirring instead of paddles, room temperature instead of 37° C.). […] Simulated gastric fluid (SGF) was prepared with 2 g/L NaCl and 1 g/L Triton® X-100 in 0.1 N HCl. The resulting measured pH of SGF was 1.2.
Oral absorption of a drug compound from a solid dosage form is dependent on dissolution rate and solubility. In the present work the in vitro dissolution of the γ-CD inclusion complex was compared to micronized powders of polymorph Form A, Form B and Form C. […]

[4] = Thermodynamic stability of polymorphs; type: physicochemical
From the text: The term “monotropy” denotes the relationship between two or more crystal forms of the same substance in which the rank order of thermodynamic stabilities of the polymorphs is retained at all temperatures below the melting point.

[5] = Hygroscopicity (European Pharmacopoeia classification); type: physicochemical; settings: for hygroscopicity: mass increase 0% rH to 90% rH
From the text: The term “hygroscopicity” describes the ability of a solid material to adsorb moisture. The hygroscopicity of a given API is characterized [European Pharmacopoeia—6th Edition (2008), Chapter 5.11) by the increase in mass when the relative humidity is raised from 0% rH to 90% rH: • non-hygroscopic: weight increase Δm<0.2%; • slightly hygroscopic: weight increase 0.2%≦Δm<2.0%; • hygroscopic: weight increase 2.0%≦Δm<15.0%; • very hygroscopic: weight increase Δm≧15.0%; • deliquescent: sufficient water is adsorbed to form a liquid.

[6] = Biopharmaceutical classification system (BCS); type: physicochemical
From the text: The compound of formula (I), its manufacture, its pharmacological activity as inverse agonists of the GABA A α5 receptor, and its use for the treatment, prevention and/or delay of progression of various central nervous system (CNS) conditions have been described in WO 2009/071476. […] Res. (1995) 12:413-420].

[7] = From the text: FIG. 20 illustrates the phase solubility diagram of (1,1-dioxo-1λ^6-thiomorpholin-4-yl)-{6-[3-(4-fluoro-phenyl)-5-methyl-isoxazol-4-ylmethoxy]-pyridin-3-yl}-methanone and γ-CD. The API solubility is shown in [μg/mL].
Phase solubility diagrams are used to characterize complex formation between two compounds and represent the solubility of the API as a function of the cyclodextrin concentration. […] Anal. Chem. Instrum. (1965) 4:117-212] and Brewster [M E. Brewster et al. Adv. Drug Delivery Rev. (2007) 59:645-666] (FIG. 20).
Anal. Chem. Instrum. (1965) 4:117-212]:
[formula] […] The binding constant (K) is a measure of the affinity of the API to enter the relatively apolar cavity of the CD.

[8] = Temperature Controlled XRPD of Form B

Q: What does the source list for `Cc1onc(-c2ccc(F)cc2)c1COc1ccc(C(=O)N2CCS(=O)(=O)CC2)cn1` [Form C, (1,1-dioxo-1λ^6-thiomorpholin-4-yl)-{6-[3-(4-fluoro-phenyl)-5-methyl-isoxazol-4-ylmethoxy]-pyridin-3-yl}-methanone]?
A: phase change upon storage at 100% rH [1]: does not induce this phase change; phase change in the presence of water ([1]; suspended state): transforms into Form B; solid form changes at elevated temperature [2]: do not show solid form changes; solubility in simulated gastric fluid (SGF) [3]: considerably improved as compared to Form B; thermodynamic stability of the polymorph [4]: more stable than Form A; also recorded: most stable polymorph overall; hygroscopicity compared to Form A ([5]; comparison): less hygroscopic than Form A

Q: For `Cc1onc(-c2ccc(F)cc2)c1COc1ccc(C(=O)N2CCS(=O)(=O)CC2)cn1` [amorphous Form, (1,1-dioxo-1λ^6-thiomorpholin-4-yl)-{6-[3-(4-fluoro-phenyl)-5-methyl-isoxazol-4-ylmethoxy]-pyridin-3-yl}-methanone], which “phase change upon storage at 100% rH” value [1] is on record?
A: Its value is “no phase transformation has been observed”.

Q: And the hygroscopicity [5]?
A: The hygroscopicity was “slightly hygroscopic (weight increase 0.2%≦Δm<2.0%)”.

Q: For `Cc1onc(-c2ccc(F)cc2)c1COc1ccc(C(=O)N2CCS(=O)(=O)CC2)cn1` [Form A, (1,1-dioxo-1λ^6-thiomorpholin-4-yl)-{6-[3-(4-fluoro-phenyl)-5-methyl-isoxazol-4-ylmethoxy]-pyridin-3-yl}-methanone], which “solid form changes at elevated temperature” value [2] is on record?
A: The value was “do not show solid form changes”.

Q: What about the “thermodynamic stability of the polymorph” value [4] of the same compound?
A: The value was “metastable”.

Q: And the “thermodynamic stability of the polymorph” value ([4]; listed as form A)?
A: The value was “only metastable”.

Q: For `Cc1onc(-c2ccc(F)cc2)c1COc1ccc(C(=O)N2CCS(=O)(=O)CC2)cn1` [Form E, (1,1-dioxo-1λ^6-thiomorpholin-4-yl)-{6-[3-(4-fluoro-phenyl)-5-methyl-isoxazol-4-ylmethoxy]-pyridin-3-yl}-methanone], which “relative humidity at which Form E reconverts (rehydrates) into Form B” value ([1]; exposure to humidity) is on record?
A: The value was greater than 5 % rH.

Q: What does the source list for `Cc1onc(-c2ccc(F)cc2)c1COc1ccc(C(=O)N2CCS(=O)(=O)CC2)cn1` [compound of formula (I), (1,1-Dioxo-1λ^6-thiomorpholin-4-yl)-{6-[3-(4-fluoro-phenyl)-5-methyl-isoxazol-4-ylmethoxy]-pyridin-3-yl}-methanone]?
A: aqueous solubility ([6]; BCS): low; permeability ([6]; BCS): high; BCS class ([6]; biopharmaceutical classification system): BCS 2; phase solubility diagram type [7]: BS-type behavior

Q: For `Cc1onc(-c2ccc(F)cc2)c1COc1ccc(C(=O)N2CCS(=O)(=O)CC2)cn1` [Form B, (1,1-dioxo-1λ^6-thiomorpholin-4-yl)-{6-[3-(4-fluoro-phenyl)-5-methyl-isoxazol-4-ylmethoxy]-pyridin-3-yl}-methanone monohydrate], which “stability in the presence of humidity” value ([1]; e.g. at ambient conditions, compared to Form A) is on record?
A: Its value is “substantially increased as compared to Form A”.

Q: And the “relative humidity at which Form B dehydrates into Form E” value ([1]; listed as form B)?
A: Its value is 0 % rH.

Q: What about the “relative humidity at which Form B dehydrates into Form E” value [1] of the same compound?
A: Its value is less than 5 % rH.

Q: What about the “temperature range in which an intermediate state is observed” value [2, 8] of the same compound?
A: Its value is 65-95 °C.

Q: What about the “temperature range in which only Form A is present” value [2, 8] of the same compound?
A: The value was 105-135 °C.

Q: And the “temperature of transformation into Form A upon heating” value ([2]; heating)?
A: The value was greater than 100 °C.

Q: What about the hygroscopicity ([5]; monohydrate) of the same compound?
A: The hygroscopicity was “hygroscopic (weight increase 2.0%≦Δm<15.0%)”.

Q: Which “solubility limit in aqueous solution” value [7] does the source give for `OC[C@H]1O[C@@H]2O[C@H]3[C@H](O)[C@@H](O)[C@@H](O[C@H]4[C@H](O)[C@@H](O)[C@@H](O[C@H]5[C@H](O)[C@@H](O)[C@@H](O[C@H]6[C@H](O)[C@@H](O)[C@@H](O[C@H]7[C@H](O)[C@@H](O)[C@@H](O[C@H]8[C@H](O)[C@@H](O)[C@@H](O[C@H]9[C@H](O)[C@@H](O)[C@@H](O[C@H]1[C@H](O)[C@H]2O)O[C@@H]9CO)O[C@@H]8CO)O[C@@H]7CO)O[C@@H]6CO)O[C@@H]5CO)O[C@@H]4CO)O[C@@H]3CO` [γ-cyclodextrin] here?
A: Its value is 150 mM (≈ 195 mg/mL).
